Assay results published in the Deep4Chem optical property database.

Assay: photoluminescence quantum yield (fraction); solvent given as SMILES

c1ccc(-c2nc(-c3ccc(N4c5ccccc5Sc5ccccc54)cc3)nn2-c2ccc(N3c4ccccc4Sc4ccccc43)cc2)nc1
photoluminescence quantum yield (in ClCCl): 0.0129

CC(C)(C)c1cc(-c2ccc(-c3cc(C(C)(C)C)cc(C(C)(C)C)c3)cc2)cc(C(C)(C)C)c1
photoluminescence quantum yield (in C1COCCO1): 0.58

[O-][n+]1c(-c2ccc(Br)cc2)cc(N2CCOCC2)nc1/C=C/c1ccccc1
photoluminescence quantum yield (in ClCCl): 0.15

CN(C)c1ccc(-c2ccc(-c3cc(-c4ccccc4)c(-c4ccccc4)c(-c4ccccc4)c3-c3ccccc3)nc2)cc1
photoluminescence quantum yield (in ClC(Cl)Cl): 0.33

CCCCN1C(=O)c2ccc3c4ccc5c6c(cc(-c7ccc(C(=C(c8ccccc8)c8ccccc8)c8ccccc8)cc7)c(c7ccc(c2c37)C1=O)c64)C(=O)N(CCCC)C5=O
photoluminescence quantum yield (in ClCCl): 0.022

Cn1cc(-c2nc3ccccc3nc2C#Cc2ccccc2)c2ccccc21
photoluminescence quantum yield (in ClCCl): 0.16

CC1=C(C(C)(C)C)C(C)=[N+]2C1=C(C)c1c(C)c(C(C)(C)C)c(C)n1[B-]2(F)F
photoluminescence quantum yield (in C1CCCCC1): 0.32 | photoluminescence quantum yield (in C1CCOC1): 0.37 | photoluminescence quantum yield (in C1COCCO1): 0.4 | photoluminescence quantum yield (in CC#N): 0.44 | photoluminescence quantum yield (in CC(C)=O): 0.44 | photoluminescence quantum yield (in CC(C)CC(C)(C)C): 0.4 | photoluminescence quantum yield (in CCC(C)C): 0.4 | photoluminescence quantum yield (in CCCC(C)=O): 0.46 | photoluminescence quantum yield (in CCCCCC): 0.43 | photoluminescence quantum yield (in CCCCCCCCO): 0.41 | photoluminescence quantum yield (in CCCCCCO): 0.42 | photoluminescence quantum yield (in CCCCO): 0.39 | photoluminescence quantum yield (in CCCCOC(C)=O): 0.43 | photoluminescence quantum yield (in CCCO): 0.39 | photoluminescence quantum yield (in CCO): 0.43 | photoluminescence quantum yield (in CCOC(C)=O): 0.44 | photoluminescence quantum yield (in CCOCC): 0.43 | photoluminescence quantum yield (in CN(C)C=O): 0.35 | photoluminescence quantum yield (in CNC=O): 0.47 | photoluminescence quantum yield (in CO): 0.48 | photoluminescence quantum yield (in COC(C)=O): 0.48 | photoluminescence quantum yield (in OCC(F)(F)F): 0.49

N#CC(/N=C/c1ccccc1O)=C(C#N)/N=C/c1ccccc1O
photoluminescence quantum yield (in CC#N): 0.017

C#CCOc1ccc(/C=C/C2=[N+]3C(=C(c4ccc(N(CC)CC)cc4)c4c(C)cc(C)n4[B-]3(F)F)C(C)=C2)cc1
photoluminescence quantum yield (in CO): 0.84

CC(C)(C)c1ccc(-n2c(-c3ccc(N(c4ccc(-c5ccc(N(c6ccc(-c7nc8c9ccccc9c9ccccc9c8n7-c7ccc(C(C)(C)C)cc7)cc6)c6ccc(-c7nc8c9ccccc9c9ccccc9c8n7-c7ccc(C(C)(C)C)cc7)cc6)cc5)cc4)c4ccc(-c5nc6c7ccccc7c7ccccc7c6n5-c5ccc(C(C)(C)C)cc5)cc4)cc3)nc3c4ccccc4c4ccccc4c32)cc1
photoluminescence quantum yield (in ClCCl): 0.451

CC(C)(C)c1ccc2c(c1)c1cc(C(C)(C)C)ccc1n2-c1ccc(S(=O)(=O)c2ccc(-n3c4ccc(C(C)(C)C)cc4c4cc(C(C)(C)C)ccc43)cc2)cc1
photoluminescence quantum yield (in Cc1ccccc1): 0.69

COc1ccc2cc(/C=C/C3=[O+][B-](F)(F)OC(/C=C/c4ccc5cc(OC)ccc5c4)=C3c3ccccc3)ccc2c1
photoluminescence quantum yield (in ClCCl): 0.51

CC1(C)c2ccccc2N(c2ccc3c(c2)c2cc(N4c5ccccc5C(C)(C)c5ccccc54)ccc2c2nc(C#N)c(C#N)nc32)c2ccccc21
photoluminescence quantum yield (in Cc1ccccc1): 0.12 | photoluminescence quantum yield (in O=P(c1ccccc1)(c1ccccc1)c1cccc(-c2cc(-n3c4ccccc4c4ccccc43)cc(-n3c4ccccc4c4ccccc43)c2)n1): 0.33

CCCCC(CC)COc1cc(OCC(CC)CCCC)c2c#cc3ccc4oc5ccc(c#cc6cc(c#cc7ccc8oc9ccc(c#cc1c2)cc9c8c7)c(C(CCCC)OCCC)cc6C(CCCC)OCCC)cc5c4c3 (configuration not stated)
photoluminescence quantum yield (in ClCCl): 0.57

C=Cc1ccc(OC)c(OC)c1
photoluminescence quantum yield (in C1CCCCC1): 0.32 | photoluminescence quantum yield (in CC#N): 0.29

c1ccc2c(c1)[nH]c1c3[nH]c4ccccc4c3c3nsnc3c21
photoluminescence quantum yield (in CN(C)C=O): 0.05 | photoluminescence quantum yield (in Cc1ccccc1): 0.07 | photoluminescence quantum yield (in ClCCl): 0.06

CCCCc1c2c(nc3ccccc13)-c1cc3c(cc1CC2)-c1nc2ccccc2c(CCCC)c1CC3
photoluminescence quantum yield (in ClC(Cl)Cl): 0.697

CCCCn1c(-c2ccc(-c3nnc(-c4ccccc4)o3)cc2)nc(-c2ccccc2)c1-c1ccccc1
photoluminescence quantum yield (in ClCCl): 0.21

c1ccc(N(c2ccccc2)c2ccc(-c3ncc(-c4ccc(-c5ccc(-c6cnc(-c7ccc(N(c8ccccc8)c8ccccc8)cc7)s6)s5)s4)s3)cc2)cc1
photoluminescence quantum yield (in CO): 0.16

CCN(CC)c1ccc2cc(-c3csc(N)c3C#N)c(=O)oc2c1
photoluminescence quantum yield (in C1CCOC1): 0.62 | photoluminescence quantum yield (in CO): 0.02 | photoluminescence quantum yield (in CS(C)=O): 0.04 | photoluminescence quantum yield (in Cc1ccccc1): 0.74 | photoluminescence quantum yield (in ClCCl): 0.6

O=P1(c2ccccc2)C2=C(c3ccccc31)S(=O)(=O)c1ccccc12 (configuration not stated)
photoluminescence quantum yield (in ClCCl): 0.98

COc1ccc(-n2nc(C#N)c(N3CCCCCC3)n2)cc1
photoluminescence quantum yield (in CC#N): 0.98

CC(C)(C)c1ccc2c(c1)c1cc(C(C)(C)C)ccc1n2-c1ccc2c(c1)C(=O)c1ccc(-n3c4ccc(C(C)(C)C)cc4c4cc(C(C)(C)C)ccc43)cc1C2=O
photoluminescence quantum yield (in Cc1ccccc1): 0.15 | photoluminescence quantum yield (in c1ccc2c(c1)c1ccccc1n2-c1ccc(-c2ccc(-n3c4ccccc4c4ccccc43)cc2)cc1): 0.52

C=C[C@]12CC[C@H](CC1)N=N2
photoluminescence quantum yield (in CC#N): 0.0009

CC[C@H](C)[C@H](Nc1c(C(C)=O)c(=O)oc2cc(N(C)C)ccc12)C(=O)O
photoluminescence quantum yield (in ClCCl): 0.0031

CCC(C)(C)c1ccc2c(c1)C(CC)(CC)c1cc(-c3ccc4c(c3)C(CC)(CC)c3cc(C(C)(C)CC)ccc3-4)ccc1-2
photoluminescence quantum yield (in C1CCCCC1): 0.85

CN(C)c1ccc2c(C(=O)NCc3ccccc3)cc(C(=O)[O-])nc2c1
photoluminescence quantum yield (in CCO): 0.013
